# Key:
# Format in all cases: in vivo
# [1] = tested on: barnyardgrass (Echinochloa crus-galli); experiment: Test A preemergence soil spray, visual injury rating 0-100; conditions: 10 days
# Outline: (§1)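 Plants in a loam and sand soil blend were treated with each test chemical, in a non-phytotoxic solvent system including surfactant, either sprayed on seeded soil before emergence or applied after emergence at the one- to two-leaf stage. Ten days later in the greenhouse, plants were compared with untreated controls and visually rated from 0 (no effect) to 100 (complete control).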
# [2] = tested on: blackgrass (Alopecurus myosuroides); experiment: as above; conditions: 10 days
# Outline: as §1
# corn (Zea mays) [3] = experiment: as above; conditions: 10 days
# Outline: as §1
# [4] = tested on: green foxtail (Setaria viridis); experiment: as above; conditions: 10 days
# Outline: as §1
# kochia (Bassia scoparia) [5] = experiment: as above; conditions: 10 days
# Outline: as §1
# [6] = tested on: oat, wild (wild oat, Avena fatua); experiment: as above; conditions: 10 days
# Outline: as §1
# [7] = tested on: palmer (palmer amaranth, palmer pigweed, Amaranthus palmeri); experiment: as above; conditions: 10 days
# Outline: as §1
# [8] = tested on: ragweed (common ragweed, Ambrosia artemisiifolia); experiment: as above; conditions: 10 days
# Outline: as §1
# [9] = tested on: ryegrass, Italian (italian ryegrass, Lolium multiflorum); experiment: as above; conditions: 10 days
# Outline: as §1
# soybean (Glycine max) [10] = experiment: as above; conditions: 10 days
# Outline: as §1
# [11] = tested on: wheat (Triticum aestivum); experiment: as above; conditions: 10 days
# Outline: as §1
# [12] = tested on: barnyardgrass (Echinochloa crus-galli); experiment: Test A postemergence application, visual injury rating 0-100
# Outline: as §1
# [13] = tested on: blackgrass (Alopecurus myosuroides); experiment: as above
# Outline: as §1
# corn (Zea mays) [14] = experiment: as above
# Outline: as §1
# [15] = tested on: galium (catchweed bedstraw, Galium aparine); experiment: as above
# Outline: as §1
# [16] = tested on: green foxtail (Setaria viridis); experiment: as above
# Outline: as §1
# [17] = tested on: horseweed (Erigeron canadensis); experiment: as above
# Outline: as §1
# kochia (Bassia scoparia) [18] = experiment: as above
# Outline: as §1
# [19] = tested on: oat, wild (wild oat, Avena fatua); experiment: as above
# Outline: as §1
# [20] = tested on: palmer (palmer amaranth, palmer pigweed, Amaranthus palmeri); experiment: as above
# Outline: as §1
# [21] = tested on: ragweed (common ragweed, Ambrosia artemisiifolia); experiment: as above
# Outline: as §1
# [22] = tested on: ryegrass, Italian (italian ryegrass, Lolium multiflorum); experiment: as above
# Outline: as §1
# soybean (Glycine max) [23] = experiment: as above
# Outline: as §1
# [24] = tested on: wheat (Triticum aestivum); experiment: as above
# Outline: as §1
# [25] = tested on: barnyardgrass (Echinochloa crusgalli); experiment: Test B flooded paddy test, visual plant response rating 0-100; conditions: 250 g ai/ha, Flood, applied to paddy water, evaluated after 13 days
# Outline: (§2)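 Plants were grown to the 2-leaf stage, then pots were flooded to 3 cm above the soil and test compounds were applied directly into the paddy water. Water depth was held there throughout; after 13 days in a greenhouse, injury was scored visually against untreated controls.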
# [26] = tested on: ducksalad (Heteranthera limosa); experiment: as above; conditions: 250 g ai/ha, Flood, applied to paddy water, evaluated after 13 days
# Outline: as §2
# rice (Oryza sativa) = experiment: as above; conditions: 250 g ai/ha, Flood, applied to paddy water, evaluated after 13 days
# Outline: as §2
# [27] = tested on: sedge, umbrella (small-flower umbrella sedge, Cyperus difformis); experiment: as above; conditions: 250 g ai/ha, Flood, applied to paddy water, evaluated after 13 days
# Outline: as §2
# [28] = 62 g ai/ha, 0 = no effect, 100 = complete control
# [29] = 62 g ai/ha, postemergence, 10 days, 0 = no effect, 100 = complete control
# [30] = Postemergence, 16 g ai/ha, greenhouse 10 days, 0 no effect, 100 complete control
compound,measurement,setting,value
"C=CC1(C(=O)NC2C=CC(C(=O)OC)C2)CN(c2cc(F)cc(F)c2)C(=O)O1 (single isomer, unassigned) [Compound 168]",Barnyardgrass plant response rating,"[1]; 16 g ai/ha, 0 to 100 scale",0
same,Barnyardgrass plant response rating (0-100),[1]; [28],0
same,Blackgrass plant response rating,"[2]; 16 g ai/ha, 0 to 100 scale",0
same,Blackgrass plant response rating (0-100),[2]; [28],0
same,Corn plant response rating,"corn (Zea mays) [3]; 16 g ai/ha, 0 to 100 scale",0
same,Corn plant response rating (0-100),corn (Zea mays) [3]; [28],0
same,"Foxtail, Green plant response rating","[4]; 16 g ai/ha, 0 to 100 scale",0
same,"Foxtail, Green plant response rating (0-100)",[4]; [28],0
same,Kochia plant response rating,"kochia (Bassia scoparia) [5]; 16 g ai/ha, 0 to 100 scale",0
same,Kochia plant response rating (0-100),kochia (Bassia scoparia) [5]; [28],0
same,"Oat, Wild plant response rating","[6]; 16 g ai/ha, 0 to 100 scale",0
same,"Oat, Wild plant response rating (0-100)",[6]; [28],0
same,"Pigweed, Palmer plant response rating","[7]; 16 g ai/ha, 0 to 100 scale",0
same,"Pigweed, Palmer plant response rating (0-100)",[7]; [28],0
same,Ragweed plant response rating,"[8]; 16 g ai/ha, 0 to 100 scale",0
same,Ragweed plant response rating (0-100),[8]; [28],0
same,"Ryegrass, Italian plant response rating","[9]; 16 g ai/ha, 0 to 100 scale",0
same,"Ryegrass, Italian plant response rating (0-100)",[9]; [28],0
same,Soybean plant response rating,"soybean (Glycine max) [10]; 16 g ai/ha, 0 to 100 scale",0
same,Soybean plant response rating (0-100),soybean (Glycine max) [10]; [28],0
same,Wheat plant response rating,"[11]; 16 g ai/ha, 0 to 100 scale",0
same,Wheat plant response rating (0-100),[11]; [28],0
same,Barnyardgrass plant response rating (0-100),[12]; [29],20
same,Barnyardgrass plant response rating (0 to 100 scale),[12]; [30],10
same,Blackgrass plant response rating (0-100),[13]; [29],0
same,Blackgrass plant response rating (0 to 100 scale),[13]; [30],0
same,Corn plant response rating (0-100),corn (Zea mays) [14]; [29],10
same,Corn plant response rating (0 to 100 scale),corn (Zea mays) [14]; [30],0
same,Galium plant response rating (0-100),[15]; [29],0
same,Galium plant response rating (0 to 100 scale),[15]; [30],0
same,"Foxtail, Green plant response rating (0-100)",[16]; [29],0
same,"Foxtail, Green plant response rating (0 to 100 scale)",[16]; [30],0
same,Horseweed plant response rating (0-100),[17]; [29],0
same,Horseweed plant response rating (0 to 100 scale),[17]; [30],0
same,Kochia plant response rating (0-100),kochia (Bassia scoparia) [18]; [29],0
same,Kochia plant response rating (0 to 100 scale),kochia (Bassia scoparia) [18]; [30],0
same,"Oat, Wild plant response rating (0-100)",[19]; [29],0
same,"Oat, Wild plant response rating (0 to 100 scale)",[19]; [30],0
same,"Pigweed, Palmer plant response rating (0-100)",[20]; [29],0
same,"Pigweed, Palmer plant response rating (0 to 100 scale)",[20]; [30],0
same,Ragweed plant response rating (0-100),[21]; [29],0
same,Ragweed plant response rating (0 to 100 scale),[21]; [30],0
same,"Ryegrass, Italian plant response rating (0-100)",[22]; [29],0
same,"Ryegrass, Italian plant response rating (0 to 100 scale)",[22]; [30],0
same,Soybean plant response rating (0-100),soybean (Glycine max) [23]; [29],0
same,Soybean plant response rating (0 to 100 scale),soybean (Glycine max) [23]; [30],0
same,Wheat plant response rating (0-100),[24]; [29],0
same,Wheat plant response rating (0 to 100 scale),[24]; [30],0
same,"Plant response rating, Barnyardgrass (0 to 100 scale, 0 is no effect and 100 is complete control)",[25],0
same,"Plant response rating, Ducksalad (0 to 100 scale, 0 is no effect and 100 is complete control)",[26],0
same,"Plant response rating, Rice (0 to 100 scale, 0 is no effect and 100 is complete control)",rice (Oryza sativa),0
same,"Plant response rating, Sedge, Umbrella (0 to 100 scale, 0 is no effect and 100 is complete control)",[27],0
